What was measured:
A549 = assay: Cytotoxicity against human A549 cells; format: functional, cell-based
SF-295 = assay: Cytotoxicity against human SF295 cells; format: functional, cell-based
[1] = Cytotoxicity against human NCI60 cells; format: functional

Row | Compound | EC50 (A549) [nM] | EC50 (SF-295) [nM] | GI50 [1] [nM]
1 | COCOc1cc(/C=C/c2cc3c(c(OC)c2)O[C@]2(C)CC[C@@H](O)C(C)(C)[C@H]2C3)cc(OC)c1C/C=C(\C)C/C=C/C(C)COC(=O)CCCC[C@H]1SC[C@H]2NC(=O)N[C@H]21 (stereo partly drawn) | > 10000 | 2700 | 
2 | COCOc1cc(/C=C/c2cc3c(c(OC)c2)O[C@]2(C)CC[C@@H](O)C(C)(C)[C@H]2C3)cc(OC)c1C/C=C(\C)C/C=C/C(C)CNC(=O)CCCC[C@H]1SC[C@H]2NC(=O)N[C@H]21 (stereo partly drawn) | 5000 | 1100 | 
3 | COc1cc(/C=C/c2cc(O)c(C/C=C(\C)CCC=C(C)C)c(O)c2)cc2c1O[C@]1(C)CC[C@@H](O)C(C)(C)[C@H]1C2 [3-DEOXYSCHWEINFURTHIN B] | 4900 |  | 1000
4 | CC(C)=CCC/C(C)=C/Cc1c(O)cc(/C=C/c2cc(O)c3c(c2)C[C@@H]2C(C)(C)[C@H](O)[C@H](O)C[C@@]2(C)O3)cc1O [SCHWEINFURTHIN A] |  |  | 1000
5 | COc1cc(/C=C/c2cc(O)c(CC=C(C)C)c(O)c2)cc2c1O[C@]1(C)CC[C@@H](O)C(C)(C)[C@H]1C2 [SCHWEINFURTHIN F] |  |  | 1000
